# Data: ChEMBL document CHEMBL5230110, “FabI (enoyl acyl carrier protein reductase) - A potential broad spectrum therapeutic target and its inhibitors” (Eur J Med Chem, 2020)
# Tests used:
# [1] = Inhibition of Pseudomonas fluorescens FabI assessed as inhibition
# [2] = Inhibition of Pseudomonas fluorescens FabG assessed as inhibition
# [3] = Inhibition of Plasmodium falciparum NF54 HDAC using extract measured after 60 mins by fluorescence assay
# Escherichia coli [4] = experiment: Antibacterial activity against Escherichia coli ATCC 8730 assessed as inhibition of bacterial growth; assay type: functional
# Staphylococcus aureus [5] = experiment: Antibacterial activity against Staphylococcus aureus ATCC 11632 assessed as reduction in bacterial growth at 25 ug/ml measured after 24 hrs serial dilution method; assay type: functional; conditions: dose 25 µg/ml
# Bacillus subtilis = experiment: Antibacterial activity against Bacillus subtilis ATCC 60511 assessed as reduction in bacterial growth at 25 ug/ml measured after 24 hrs serial dilution method; assay type: functional; conditions: dose 25 µg/ml
# Vibrio cholerae = experiment: Antibacterial activity against Vibrio cholerae; assay type: functional
# [6] = biological target: T1, Enoyl-[acyl-carrier-protein] reductase [NADPH] FabI (Staphylococcus aureus, UniProt Q6GI75); experiment: Inhibition of Staphylococcus aureus ATCC 29213 FabI in the presence of NADH using crotonyl CoA as substrate by measuring NADH consumption rate
# T1 sequence (Q6GI75 whole entry): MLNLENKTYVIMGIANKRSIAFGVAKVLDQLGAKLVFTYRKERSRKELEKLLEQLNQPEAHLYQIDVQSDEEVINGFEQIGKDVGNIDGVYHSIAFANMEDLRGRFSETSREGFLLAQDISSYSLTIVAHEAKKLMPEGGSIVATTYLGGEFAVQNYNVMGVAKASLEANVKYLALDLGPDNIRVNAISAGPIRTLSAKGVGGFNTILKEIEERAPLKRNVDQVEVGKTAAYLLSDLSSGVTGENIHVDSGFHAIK
# Staphylococcus aureus [7] = experiment: Antibacterial activity against Methicillin-resistant Staphylococcus aureus N315 assessed as reduction in bacterial growth; assay type: functional
# [8] = biological target: T2, Enoyl-[acyl-carrier-protein] reductase [NADH] FabI (Escherichia coli K-12, UniProt P0AEK4); experiment: Inhibition of Escherichia coli DH5alpha FabI in the presence of NADH using crotonyl CoA as substrate by measuring NADH consumption rate
# T2 sequence (P0AEK4 whole entry): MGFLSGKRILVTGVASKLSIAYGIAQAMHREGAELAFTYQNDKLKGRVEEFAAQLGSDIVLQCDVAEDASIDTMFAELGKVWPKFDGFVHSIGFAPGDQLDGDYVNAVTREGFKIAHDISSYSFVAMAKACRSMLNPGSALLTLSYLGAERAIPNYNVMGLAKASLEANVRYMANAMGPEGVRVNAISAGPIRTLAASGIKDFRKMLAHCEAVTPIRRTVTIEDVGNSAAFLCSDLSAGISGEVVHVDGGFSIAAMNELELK
# Escherichia coli [9] = experiment: Antibacterial activity against Escherichia coli assessed as inhibition of LPS biosynthesis; assay type: functional
# [10] = tested on: Mycobacterium tuberculosis; experiment: Antimycobacterial activity against Mycobacterium tuberculosis H37Rv; assay type: functional
# [11] = tested on: Mycobacterium tuberculosis; experiment: Antimycobacterial activity against Mycobacterium tuberculosis H37Rv after 14 days; assay type: functional; conditions: 336 h, time 14 day
# [12] = biological target: T1, Enoyl-[acyl-carrier-protein] reductase [NADPH] FabI; experiment: Inhibition of Staphylococcus aureus FabI in the presence of NADH using crotonyl CoA as substrate by measuring NADH consumption rate
# [13] = biological target: T2, Enoyl-[acyl-carrier-protein] reductase [NADH] FabI; experiment: Inhibition of Escherichia coli FabI in the presence of NADH using crotonyl CoA as substrate by measuring NADH consumption rate
# Moraxella catarrhalis = experiment: Antibacterial activity against Moraxella catarrhalis assessed as inhibition in bacterial growth measured after 24 hrs by broth microdilution method; assay type: functional
# Staphylococcus aureus [14] = experiment: Antibacterial activity against Staphylococcus aureus assessed as inhibition of bacterial growth measured after 24 hrs; assay type: functional
# Staphylococcus aureus [15] = experiment: Antibacterial activity against Methicillin-resistant Staphylococcus aureus ATCC 33592 assessed as bacterial growth inhibition measured after 24 hrs by broth dilution method; assay type: functional
# Staphylococcus aureus [16] = experiment: Antibacterial activity against quinolone-resistant Staphylococcus aureus; assay type: functional
smiles,measurement,setting,value
C=C1C(=O)OC[C@H]1C(O)/C=C(\C)CC(=O)C=C(C)C (some centres not stated),IC50,[1],20 µg/mL
same,IC50,[2],75 µg/mL
same,IC50,[3],20 µg/mL
O=C(NN1C(=O)CC1c1cc2cc(Br)ccc2nc1Cl)c1ccncc1 (configuration not stated),MIC,Escherichia coli [4],0.4 µg/mL
same,MIC,Staphylococcus aureus [5],12.5 µg/mL
same,MIC,Bacillus subtilis,12.5 µg/mL
same,MIC,Vibrio cholerae,0.4 µg/mL
Cc1cccc(Cl)c1Cc1c(Cl)n(Cc2cccc(Cl)c2)ccc1=O,IC50,[6],340 nM
same,MIC90,Staphylococcus aureus [7],0.5 µg/mL
same,IC50,[8],340 nM
CCCS(=O)(=O)N1N=Cc2cc(C)sc2B1O,MIC,Escherichia coli [9],1.25 µg/mL
COc1nc2ccc(C)cc2cc1C1CC(=O)N1NC(=O)c1ccc(-n2cccc2)cc1 (configuration not stated),MIC,Escherichia coli [4],0.4 µg/mL
same,MIC,Staphylococcus aureus [5],12.5 µg/mL
same,MIC,Bacillus subtilis,12.5 µg/mL
same,MIC,Vibrio cholerae,0.4 µg/mL
Cc1cccc(Cl)c1Cc1c(Cl)n(Cc2cccs2)ccc1=O,IC50,[6],350 nM
same,MIC90,Staphylococcus aureus [7],2 µg/mL
same,IC50,[8],400 nM
COc1nc2ccc(Br)cc2cc1C1CC(=O)N1NC(=O)c1ccncc1 (configuration not stated),MIC,Escherichia coli [4],0.4 µg/mL
same,MIC,Staphylococcus aureus [5],3.12 µg/mL
same,MIC,Bacillus subtilis,3.12 µg/mL
same,MIC,Vibrio cholerae,0.4 µg/mL
CCCCCCCCCCCCCCCCc1cc(OC2OC(CO)C(O)C(O)C2O)cc(O)c1C(=O)Oc1cc(C)c(C(=O)O)c(O)c1 (configuration not stated),IC50,[6],3200 nM
COc1nc2ccc(Br)cc2cc1/C=N/NC(=O)c1ccc(-n2cccc2)cc1,MIC,[10],1.6 µg/mL
Oc1cc(Cn2cc(C3CC3)nn2)ccc1Oc1ccccc1Cl,MIC,[11],0.156 µg/mL
C=C1C(=O)OC[C@H]1C(/C=C(\C)CC(=O)C=C(C)C)OC(C)=O (some centres not stated),IC50,[1],25 µg/mL
same,IC50,[2],50 µg/mL
COc1nc2ccc(C)cc2cc1/C=N/NC(=O)c1ccc(-n2cccc2)cc1,MIC,[10],1.6 µg/mL
CC(C)CCCC/C=C\CCCCCCCC(=O)O,IC50,[12],16300 nM
Cc1ccc(Cn2cnc(-c3ccsc3)c2)cc1,IC50,[13],3.92 µM
same,IC50,[12],360 nM
COc1ccc(-c2cn(Cc3ccc(C)cc3)cn2)cc1,IC50,[13],6.44 µM
same,IC50,[12],250 nM
O=C(c1ccc(O)cc1)N1CCc2c(n(Cc3ccc(O)cc3)c3ccccc23)C1,MIC,Moraxella catarrhalis,8 µg/mL
same,MIC,Staphylococcus aureus [14],0.5 µg/mL
Cc1ccc(C(=O)N2CCc3c(n(Cc4ccc(O)cc4)c4ccccc34)C2)c(O)c1,MIC,Moraxella catarrhalis,4 µg/mL
same,MIC,Staphylococcus aureus [14],1 µg/mL
CC1CC(=O)c2c(cc3c(-c4c(O)cc(O)c5c(O)c6c(cc45)OC(C)CC6=O)c(O)cc(O)c3c2O)O1 (configuration not stated) [CEPHALOCHROMIN],IC50,[6],1900 nM
same,IC50,[8],1800 nM
Cc1c(N)cccc1Cn1ccc(OCCc2cccs2)cc1=O [CG-400549],MIC,Staphylococcus aureus [15],0.25 µg/mL
same,MIC90,Staphylococcus aureus [7],0.25 µg/mL
CN1C(=O)[C@@H](c2cc(Cl)c(O)c(Cl)c2)NC(=O)[C@@H]2NC(=O)[C@@H](c3cc(Cl)c(O)c(Cl)c3)NC(=O)[C@H](NC(=O)C(=O)c3cc(Cl)c(O)c(Cl)c3)Cc3c[nH]c4c(cccc34)-c3cc2cc(c3O)Oc2ccc(cc2)C[C@H]1C(=O)N[C@@H](C(=O)O)c1ccc(O)cc1 [CHLOROPEPTIN],IC50,[6],300 nM
same,MIC,Staphylococcus aureus [16],4 µg/mL
CN1C(=O)[C@@H](c2cc(Cl)c(O)c(Cl)c2)NC(=O)[C@@H]2NC(=O)[C@@H](c3cc(Cl)c(O)c(Cl)c3)NC(=O)[C@H](NC(=O)C(=O)c3cc(Cl)c(O)c(Cl)c3)CC3C(=O)Nc4cc(ccc43)-c3cc2cc(c3O)Oc2ccc(cc2)C[C@H]1C(=O)N[C@@H](C(=O)O)c1ccc(O)cc1 (some centres not stated) [COMPLESTATINS A],IC50,[6],600 nM
same,MIC,Staphylococcus aureus [16],4 µg/mL
CC(C)=CCc1c(O)cc(-c2cc3ccc(O)cc3o2)cc1O [MORACIN C],MIC,Staphylococcus aureus [14],32 µg/mL
CC(=O)c1cc2c(=O)c3c(C(=O)O)c(O)c(O)cc3oc2c(C(C)=O)c1-c1coc2cc(O)c(O)c(C(=O)O)c2c1=O [VINAXANTHONE],IC50,[6],900 nM
